Values quoted from earlier work as cited in patent publication US20040122104A1 (Collegium Pharmaceutical, Inc., priority 2002, published 2004).
Where two headings read alike, the source gives them in different places.

Columns and labels:
[1] = in vivo
[2] = 75-100 mg/day twice daily for 8 weeks, 219 elderly patients
[3] = intravenous, of 10 patients
[4] = not given; remark: listed apart in the source
[5] = compared with SSRIs and tricyclic antidepressants
[6] = approximately 400,000 patients

SMILES | top three adverse events associated with discontinuation of treatment [1] | only adverse event reported more frequently than for imipramine recipients [2] | patients reporting transient nausea [3] | metabolites as share of the concentration of the parent drug (liver metabolism) | number of chemically identified metabolites (liver metabolism) | time in which oral doses are absorbed and extensively distributed in the body (oral) [h] | global pain score, mean value ([4]; 1-7 scale (1 very much improved, 4 unchanged, 7 very much worse), patients who reached endpoint) | participants who failed the dose escalation ([4]; BID-IR group (twice daily immediate release)) [%] | participants who failed the dose escalation ([4]; QD-IR group (once daily immediate release)) [%] | disturbances of REM sleep [5] | toxicity in humans [6]
CN[C@H]1CC[C@@H](c2ccc(Cl)c(Cl)c2)c2ccccc21 [sertraline] | nausea, insomnia, and diarrhea | – | – | – | – | – | – | – | – | – | –
CCN(CC)C(=O)C1(c2ccccc2)CC1CN (centres unmarked) [milnacipran, Milnacipran] | – | nausea | five | about 10% | ten | 1 to 2 | 2.3 | 6 | 19 | only minor disturbances | non-toxic
